For orientation: IC50 means the concentration that gives 50% inhibition. A lower IC50 goes with greater potency in that assay.

Experimental findings from article PMC9322052, “Synthesis and Biological Activity Screening of Newly Synthesized Trimethoxyphenyl-Based Analogues as Potential Anticancer Agents” (Molecules, 2022) are described below.

In one assay the test system is HepG2 cells. Kind of assay: Cell cycle analysis by PI staining / FACS. Format: cell-based, human. Conditions: 48 h. The protocol: It is well documented that exposure to microtubule targeting agents leads to the malformed mitotic spindle which eventually leads to cell cycle arrest at the G2/M phase and apoptosis induction. Thus, the effect of the selected candidate 9 on the cell cycle progression of the HepG2 cell line was examined by flow cytometry analysis (FACS). The HepG2 cell line was treated with the IC50 concentration of compound 9 for 48 h.
Cell cycle analysis in HepG2 cells was carried out by FACS analysis according to the manufacturer’s directions. See Section 3.3.3 in Supplementary Material.
Figure 3 Compound 9 induces G2/M phase disturbance in HepG2 cells. (A) HepG2 cells were treated with 1.38 μM of compound 9 for 48 h. […]
To measure the cytotoxic activity of the synthesized derivatives 2a-11 in hepatocel-lular carcinoma (HepG2) cell line (ATCC Cat No. HB-8065) as well as normal human liver cell line HL-7702 (ATCC Cat. No. 77402), cell viability assay was assessed using MTT assay method. […] The color inten-sity of the formazan product, which represents the growth condition of the cells, is quan-tified by using an ELISA plate reader (EXL 800, USA) at 570 nm absorbance. […]
(§1) Compounds 9, 10 and 11 were evaluated for their tubulin inhibitory activity levels according to the manufacturer’s instructions using # abcam Human Beta-tubulin simplestep […]

Assay [1] has as its system normal liver cell line HL-7702. The experiment in a line: MTT cytotoxicity assay, normal liver cells. The settings on record: Homo sapiens, L02, 24 h treatment, mean ± SE. Format: cell-based. The protocol: (§2) All the newly synthesized analogs were evaluated for their in vitro cytotoxicity against the hepatocellular carcinoma HepG2 cell line. Podo was utilized as a reference control in the current study. […] The N-phenyl triazinone derivative 9 was further investigated for its cytotoxic effects against normal liver cell line HL-7702.
(§3) MTT colorimetric assay was carried out to investigate the impact of the newly synthesized compounds 2–11 on hepatocellular carcinoma (HepG2) and normal liver cell line (HL-7702) cell lines. See Section 3.3.1 in Supplementary Material.
(§4) 3.3.1. Cytotoxic activity evaluation
To measure the cytotoxic activity of the synthesized derivatives 2a-11 in hepatocel-lular carcinoma (HepG2) cell line (ATCC Cat No. HB-8065) as well as normal human liver cell line HL-7702 (ATCC Cat. No. 77402), cell viability assay was assessed using MTT assay method. Cells at density of 1 x 104 were seeded in a 96-well plate at 37 °C for 24 h under 5% CO2. […] The color inten-sity of the formazan product, which represents the growth condition of the cells, is quan-tified by using an ELISA plate reader (EXL 800, USA) at 570 nm absorbance. […]
as §1
3.3.5. […] The samples were immediately analyzed using cell […]
For orientation: Tetrazolium dyes change colour on reduction, which living cells bring about.

Assay [2] concerns hepatocellular carcinoma HepG2 cell line. Kind of assay: MTT cytotoxicity assay, HepG2. Conditions: Homo sapiens, HepG2, 24 h, 24 h treatment, mean ± SE. Format: cell-based, human. The protocol:
as §2, §3, §4
To measure the cytotoxic activity of the synthesized derivatives 2a-11 in hepatocel-lular carcinoma (HepG2) cell line (ATCC Cat No. HB-8065) as well as normal human liver cell line HL-7702 (ATCC Cat. No. 77402), cell viability assay was assessed using MTT assay method. Cells at density of 1 x 104 were seeded in a 96-well plate at 37 °C for 24 h under 5% CO2. After incubation, the cells were treated with different concentrations of the test compounds 2a-11 and incubated for 24 h, then 20 μl of MTT solution at 5 mg/mL was applied and incubated for 4 h at 37 °C. Dimethyl sulphoxide (DMSO) in volume of 100 µl was added to each well to dissolve the purple formazan that had formed. The color inten-sity of the formazan product, which represents the growth condition of the cells, is quan-tified by using an ELISA plate reader (EXL 800, USA) at 570 nm absorbance. The experi-mental conditions were carried out with at least three replicates, and the experiments were repeated at least three times.
3.3.2. Tubulin inhibitions Assay
as §1
3.3.3. Cell cycle analysis of compound 9
Cell cycle analysis in HepG2 cells was investigated using fluorescent Annexin V-FITC/ PI detection kit (BioVision EZCellTM Cell Cycle Analysis Kit Catalog #K920) by flow cytometry assay. HepG2 cells at a density of 2 × 10^5 per well were harvested and washed twice in PBS. After that, the cells were incubated at 37 °C and 5% CO2. […] Afterward, medium was stained with DNA flu-orochrome PI for 15 min at 37 °C. The samples were immediately analyzed using Facs Calibur flow cytometer (Becton and Dickinson, Heidelberg, Germany).
3.3.4. Apoptosis assay for compound 9
Apoptosis in HepG2 cells was investigated using fluorescent Annexin V-FITC/ PI de-tection kit (BioVision Annexin V-FITC Apoptosis Detection Kit, Catalog #: K101) by flow cy-tometry assay. HepG2 cells at a density of 2 × 10^5 per well were treated with compound 9 at its IC50 (μM) for 48 h, then the cells were harvested and stained with Annexin V-FITC/ PI dye for 15 min in the dark at 37 °C. The samples were immediately analyzed using FACS Calibur flow cytometer (Becton and Dickinson, Heidelberg, Germany).
3.3.5. Measurement of mitochondrial membrane potential (MMP) for compound 9 MMP was measured by FACS analysis using abcam ab113852TMRE Mitochondrial Membrane Potential Assay Kit with DiOC2(3) staining using MitoProbe™ DiOC2(3) Assay Kit for Flow Cytometry (M34150). After treatment with compound 9 at its IC50 concentra-tion, cells were stained with DiOC2(3) dye for 30 min in the incubator, then harvested and washed with PBS. DiOC2(3)-stained cells were represented with Annexin binding buffer and incubated at 37 °C for 15 min. The samples were immediately analyzed using cell […]
3.3.6. Effect on p53, Bax and Bcl-2 p53, Bax and Bcl2 enzyme activities in HepG2 cells were detected in the presence of com-pound 9 at its IC50 concentration (μM). The levels of the tumor suppressor gene p53, apoptotic markers Bax as well as the anti-apoptotic marker Bcl-2 were assessed using p53 ELISA kit, Human Bax ELISA kit and Bcl-2 Elisa kit. […]

Consider `COc1ccc(C2=N/C(=C\c3cc(OC)c(OC)c(OC)c3)C(=O)NN2c2ccccc2)cc1OC` [Compound 9, (Z)-3-(3,4-Dimethoxyphenyl)-2-Phenyl-5-(3,4,5-Trimethoxybenzylidene)-1,2-Dihydro-1,2,4-Triazin-6(5H)-one], for which the “G2/M cell population percentage” value with HepG2 cells (HepG2, 1.38 μM (IC50), control 13.28%) is recorded as 30.83%. For the same molecule, the “fold increase in G2/M cell population compared to untreated control” value in the assay on HepG2 cells (HepG2, IC50 concentration) was approximately 3 fold. For the same molecule, the IC50 in assay [1] was found to be 29.1 ± 2.03 µM; in assay [2], 1.38 ± 0.15 µM.
